Tested on: advanced solid tumors
Experiment: Preliminary antitumor activity, RECIST version 1.1
Format: in vivo, human
Settings: for PFS estimate at 6 months / Median PFS / Median duration of overall response / PFS estimate at 9 months: [95% CI]; for Median PFS: Kaplan–Meier
Source text: Evaluation of tumor response to determine the objective response rate (ORR), progression‐free survival (PFS), and duration of response was based on RECIST version 1.1 criteria.
All data were summarized and tabulated by dose cohort. Categoric data were summarized in terms of frequency counts and percentages. Continuous data were summarized using descriptive statistics, including number of observations, mean, standard deviation, median, minimum, and maximum. No formal statistical analysis was performed for efficacy variables, which were all exploratory in nature. ORR was defined as the proportion of patients with a confirmed partial response (PR) or complete response (CR). Duration of response was defined as time from a patient's initial objective response to the first date of disease progression (PD) or death. The overall disease control rate was defined as the proportion of patients with CR, PR, or stable disease (SD). […] PFS was estimated using the Kaplan–Meier method. Efficacy analyses are presented with two‐sided exact 95% binomial CI.

[1] = total, N = 9, listed as telisotuzumab vedotin
[2] = total, N = 9, listed as teliso-v

Substance: Teliso‐v: antibody‐drug conjugate: anti–c‐Met humanized monoclonal antibody ABT‐700 coupled to monomethyl auristatin E through a valine‐citrulline linker, drug:antibody ratio approximately three
- Complete response (2.4 mg/kg Q3W, n = 3): 0 n (%)
- Disease control rate (2.4 mg/kg Q3W, n = 3): 3 (100) [NA] n (%) [95% CI]
- Objective response rate (2.4 mg/kg Q3W, n = 3): 0 n (%)
- Partial response (2.4 mg/kg Q3W, n = 3): 0 n (%)
- Progressive disease (2.4 mg/kg Q3W, n = 3): 0 n (%)
- Stable disease (2.4 mg/kg Q3W, n = 3): 3 (100) n (%)
- PFS estimate at 6 months (2.4 mg/kg Q3W, n = 3): 33.3 [0.9–77.4] %
- Median PFS (2.4 mg/kg Q3W, n = 3): 4.1 [2.8–7.1] months
- Complete response (2.7 mg/kg Q3W, n = 6): 0 n (%)
- Objective response rate (2.7 mg/kg Q3W, n = 6): 2 (33) n (%)
- Partial response (2.7 mg/kg Q3W, n = 6): 2 (33) n (%)
- Progressive disease (2.7 mg/kg Q3W, n = 6): 1 (17) n (%)
- Stable disease (2.7 mg/kg Q3W, n = 6): 3 (50) n (%)
- Median duration of overall response (2.7 mg/kg Q3W, n = 6): 8.2 [7.2–9.1] months
- PFS estimate at 6 months (2.7 mg/kg Q3W, n = 6): 83.3 [27.3–97.5] %
- PFS estimate at 9 months (2.7 mg/kg Q3W, n = 6): 83.3 [27.3–97.5] %
- Median PFS (2.7 mg/kg Q3W, n = 6): 10.4 [1.2–12.0] months
- Patients with PD (N = 9): one
- Patients with SD (N = 9): six
- Patients with PR (N = 9, both at 2.7‐mg/kg (urothelial, ovarian cancer)): Two
- Reduction of sum of the tumor size (single patient, 27 weeks after teliso-v initiation): 73%
- Sum of the tumor size (single patient, lung metastasis, 27 weeks after teliso-v initiation, baseline 64.4 mm): 17.3 mm
- Patients with reduction in tumor size from baseline (thymic cancer, NSCLC, ovarian cancer, urothelial cancer): Four
- Complete response (total, N = 9): 0 n (%)
- Objective response rate (total, N = 9): 2 (22) n (%)
- Overall disease control rate (total, N = 9): 89%
- PFS estimate at 6 months (total, N = 9): 64.0 [23.8–86.6] %
- PFS estimate at 9 months (total, N = 9): 48.0 [12.3–76.9] %
- Median PFS (total, N = 9): 7.1 [1.2–10.4] months
- Median PFS [1]: 7.1 months
- Median duration of overall response [2]: 8.2 [7.2–9.1] months
- Median duration of overall response (total, N = 9, listed as teliso‐v): 8.2 months
- Partial response [2]: 2 (22) n (%)
- Progressive disease [2]: 1 (11) n (%)
- Stable disease [2]: 6 (67) n (%)
- Partial response [1]: 22%
- Progressive disease [1]: 11%
- Stable disease [1]: 67%

Source: article PMC7982615, “Phase 1 study of telisotuzumab vedotin in Japanese patients with advanced solid tumors” (Cancer Medicine, 2021)
